Source: US20250304550A1, “BROMODOMAIN AND EXTRA-TERMINAL (BET) SUBFAMILY BROMODOMAIN 1 (BD1) SELECTIVE INHIBITORS AND METHODS USING SAME” (Baylor College of Medicine, priority 2022, published 2025)

Tests used:
[1] = Metabolic stability assay in mouse liver microsomes; format: in vitro ADME
[2] = Metabolic stability assay in human liver microsomes; format: in vitro ADME
BRDT-BD1 = BRDT-BD1 (Homo sapiens (Human), UniProt Q58F21); assay: AlphaScreen bromodomain proximity assay (biotinylated JQ1 competition); format: binding; details: for IC50: AlphaScreen; for BRDT-BD1 vs. BRDT-BD2 fold: BD1 selectivity, AlphaScreen IC50 ratio; for fold loss of selectivity BRDT-BD1 over BRDT-BD2: compared to compound 2
[3] = tested on: BRD4-dependent AML cell lines; assay: Cell viability testing (CellTiterGlo, 72 hours) in AML cell lines; format: cell-based
BRD4-BD1 = BRD4-BD1 (Homo sapiens (Human), UniProt O60885); assay: AlphaScreen bromodomain proximity assay (biotinylated JQ1 competition); format: binding; details: for BRD4-BD1 vs. BRD4-BD2 fold: BD1 selectivity, AlphaScreen IC50 ratio
BRD4-BD2 = BRD4-BD2 (Homo sapiens (Human), UniProt O60885); assay: as above; format: binding; details: in Table 4 '—' = not efficient
BRDT-BD2 = BRDT-BD2 (Homo sapiens (Human), UniProt Q58F21); assay: as above; format: binding; details: in Table 4 '—' = not efficient
NanoLuc-BET BD1 = assay: NanoBRET target engagement intracellular BET bromodomain assay in HEK293 cells; format: cell-based, human; details: transiently transfected HEK293 cells
BD2 = details: background statement; cited from earlier work
[4] = 0.5 mg protein/mL, compound 2.0 μM, NADPH 1.0 mM

SMILES | IC50 (BRDT-BD1) | BRDT-BD1 vs. BRDT-BD2 fold (BRDT-BD1) | IC50 (BRD4-BD1; AlphaScreen) | BRD4-BD1 vs. BRD4-BD2 fold (BRD4-BD1) | IC50 (BRD4-BD2) | IC50 (BRDT-BD2) | other results
Cc1nnc2n1-c1ccc(Cl)cc1C(c1ccccc1)=NC2 [Alprazolam, reference compound] |  |  |  |  |  |  | MLM t1/2 [1, 4]: 5.03 h; HLM t1/2 [2, 4]: 14.4 h
CNC(=O)C(CC1CCN(C(=O)Cc2ccc3[nH]c(=O)cc(C)c3c2)CC1)NC(=O)c1ccc(-c2ccc(C)cc2C)cn1 (centres unmarked) [Compound 1, 5-(2,4-dimethylphenyl)-N-(3-(1-(2-(4-methyl-2-oxo-1,2-dihydroquinolin-6-yl)acetyl)piperidin-4-yl)-1-(methylamino)-1-oxopropan-2-yl)picolinamide] | 5.7 nM | 2246 fold |  |  |  |  | 
CNC(=O)[C@H](CC1CCN(C(=O)Cc2ccc3[nH]c(=O)cc(C)c3c2)CC1)NC(=O)c1ccc(-c2ccc(C)cc2C)cn1 [Compound 3, (S)-5-(2,4-dimethylphenyl)-N-(3-(1-(2-(4-methyl-2-oxo-1,2-dihydroquinolin-6-yl)acetyl)piperidin-4-yl)-1-(methylamino)-1-oxopropan-2-yl)picolinamide] | 96.6 nM | 65 fold |  |  |  |  | cellular potency in AML cell lines (in words) [3]: minimal effect; fold greater affinity for BRD4-BD1 than BRDT-BD1 (BRD4-BD1; AlphaScreen): 4 fold
CNC(=O)[C@H](CC1CCN(C(=O)Cc2ccc3[nH]c(=O)cc(C)c3c2)CC1)NC(=O)c1ccc(-c2ccccc2)cn1 [Compound 5, (S)-N-(3-(1-(2-(4-methyl-2-oxo-1,2-dihydroquinolin-6-yl)acetyl)piperidin-4-yl)-1-(methylamino)-1-oxopropan-2-yl)-5-phenylpicolinamide] |  |  |  |  |  |  | cellular potency in AML cell lines (in words) [3]: minimal activity
CNC(=O)[C@H](CC1CCN(C(=O)Cc2ccc3[nH]c(=O)cc(C)c3c2)CC1)NC(=O)c1ccc(C(F)(F)F)cn1 [Compound 7, (S)-N-(3-(1-(2-(4-methyl-2-oxo-1,2-dihydroquinolin-6-yl)acetyl)piperidin-4-yl)-1-(methylamino)-1-oxopropan-2-yl)-5-(trifluoromethyl)picolinamide] | 3.8 nM |  | 7.4 nM |  |  |  | 
CNC(=O)[C@@H](CC1CCN(C(=O)Cc2ccc3[nH]c(=O)cc(C)c3c2)CC1)NC(=O)c1ccc(-c2ccc(Cl)cc2)cn1 [Compound 8, (R)-5-(4-chlorophenyl)-N-(3-(1-(2-(4-methyl-2-oxo-1,2-dihydroquinolin-6-yl)acetyl)piperidin-4-yl)-1-(methylamino)-1-oxopropan-2-yl)picolinamide] | 5.1 nM | 6,633 fold | 12.8 nM | 1,553 fold | 19900 nM | 33800 nM | 
CNC(=O)[C@@H](CC1CCN(C(=O)Cc2ccc3[nH]c(=O)cc(C)c3c2)CC1)NC(=O)c1ccc(-c2ccc(Cl)c(F)c2)cn1 [Compound 9, (R)-5-(4-chloro-3-fluorophenyl)-N-(3-(1-(2-(4-methyl-2-oxo-1,2-dihydroquinolin-6-yl)acetyl)piperidin-4-yl)-1-(methylamino)-1-oxopropan-2-yl)picolinamide] | 4.7 nM | 4,799 fold | 9.8 nM | 1,423 fold | 14000 nM | 22600 nM | 
CNC(=O)C(CC1CCN(C(=O)Cc2ccc3[nH]c(=O)cc(C)c3c2)CC1)NC(=O)c1ccccn1 (centres unmarked) [Compound 11, N-(3-(1-(2-(4-methyl-2-oxo-1,2-dihydroquinolin-6-yl)acetyl)piperidin-4-yl)-1-(methylamino)-1-oxopropan-2-yl)picolinamide] | 20.2 nM | 960 fold | 15.7 nM | 2,078 fold | 32600 nM | 19400 nM | fold loss of selectivity BRDT-BD1 over BRDT-BD2 (BRDT-BD1): 5 fold
CNC(=O)C(CC1CCN(C(=O)Cc2ccc3[nH]c(=O)cc(C)c3c2)CC1)NC(=O)c1ccc(C(F)(F)F)cn1 (centres unmarked) [Compound 12, N-(3-(1-(2-(4-methyl-2-oxo-1,2-dihydroquinolin-6-yl)acetyl)piperidin-4-yl)-1-(methylamino)-1-oxopropan-2-yl)-5-(trifluoromethyl)picolinamide] | 14 nM | 513 fold | 6.9 nM | 1,275 fold | 8800 nM | 7190 nM | 
Cc1ccc(-c2ccc(C(=O)NC(C)CC3CCN(C(=O)Cc4ccc5[nH]c(=O)cc(C)c5c4)CC3)nc2)c(C)c1 (centres unmarked) [Compound 14, 5-(2,4-dimethylphenyl)-N-(1-(1-(2-(4-methyl-2-oxo-1,2-dihydroquinolin-6-yl)acetyl)piperidin-4-yl)propan-2-yl)picolinamide] | 31 nM | 756 fold | 52.4 nM | 381 fold | 20000 nM | 23400 nM | fold loss of selectivity BRDT-BD1 over BRDT-BD2 (BRDT-BD1): 6.5 fold
Cc1ccc(-c2ccc(C(=O)NCCC3CCN(C(=O)Cc4ccc5[nH]c(=O)cc(C)c5c4)CC3)nc2)c(C)c1 [Compound 15, 5-(2,4-dimethylphenyl)-N-(2-(1-(2-(4-methyl-2-oxo-1,2-dihydroquinolin-6-yl)acetyl)piperidin-4-yl)ethyl)picolinamide] | 33.7 nM | 2012 fold | 27.8 nM | 312 fold | 8690 nM | 67800 nM | 
Cc1cc(=O)[nH]c2ccc(CC(=O)N3CCC(CCNC(=O)c4ccccn4)CC3)cc12 [Compound 16, N-(2-(1-(2-(4-methyl-2-oxo-1,2-dihydroquinolin-6-yl)acetyl)piperidin-4-yl)ethyl)picolinamide] | 35.4 nM | 192 fold | 13.8 nM | 5,449 fold | 75200 nM | 6800 nM | 
Cc1cc(=O)[nH]c2ccc(CC(=O)N3CCC(CCNC(=O)c4ccccc4)CC3)cc12 [Compound 17, N-(2-(1-(2-(4-methyl-2-oxo-1,2-dihydroquinolin-6-yl)acetyl)piperidin-4-yl)ethyl)benzamide] | 148 nM | 70 fold | 47.9 nM |  |  | 10400 nM | 
Cc1cc(=O)[nH]c2ccc(CC(=O)N3CCC(CCNC(=O)c4ccc5ccccc5n4)CC3)cc12 [Compound 18, N-(2-(1-(2-(4-methyl-2-oxo-1,2-dihydroquinolin-6-yl)acetyl)piperidin-4-yl)ethyl)quinoline-2-carboxamide] | 81.3 nM |  | 122 nM |  |  |  | 
Cc1cc(=O)[nH]c2ccc(CC(=O)N3CCC(CCNC(=O)c4cc5ccccc5cn4)CC3)cc12 [Compound 19, N-(2-(1-(2-(4-methyl-2-oxo-1,2-dihydroquinolin-6-yl)acetyl)piperidin-4-yl)ethyl)isoquinoline-3-carboxamide] | 116 nM |  | 119 nM |  |  |  | 
Cc1cc(=O)[nH]c2ccc(CC(=O)N3CCC(CCNC(=O)c4nccc5ccccc45)CC3)cc12 [Compound 20, N-(2-(1-(2-(4-methyl-2-oxo-1,2-dihydroquinolin-6-yl)acetyl)piperidin-4-yl)ethyl)isoquinoline-1-carboxamide] | 638 nM |  | 341 nM |  |  |  | 
Cc1cc(=O)[nH]c2ccc(CC(=O)N3CCN(CCNC(=O)c4ccccn4)CC3)cc12 [Compound 21, N-(2-(4-(2-(4-methyl-2-oxo-1,2-dihydroquinolin-6-yl)acetyl)piperazin-1-yl)ethyl)picolinamide] | 5200 nM | 13.8 fold | 1300 nM |  |  | 71800 nM | 
Cc1sc2c(c1C)C(c1ccc(Cl)cc1)=N[C@@H](CC(=O)OC(C)(C)C)c1nnc(C)n1-2 [JQ1, tert-butyl (S)-2-(4-(4-chlorophenyl)-2,3,9-trimethyl-6H-thieno[3,2-f][1,2,4]triazolo[4,3-a][1,4]diazepin-6-yl)acetate, reference compound] |  |  |  |  |  |  | inhibition of tracer binding, BD1 vs BD2 (in words) (NanoLuc-BET BD1): binds both BD1 and BD2 equally; metabolic stability in mouse liver microsomes (in words) ([1]; mouse, microsomes): labile; half-life in human liver microsomes (in words) ([2]; human, microsomes): quite low
COc1cc(OC)c2c(=O)[nH]c(-c3cc(C)c(OCCO)c(C)c3)nc2c1 [RVX-208] |  |  |  |  |  |  | BD2 potency (BD2): > 100 nM; selectivity over BD1 domains (BD2): ~10 fold
